Data from the supplement of paper PMC7046801.
Structures can show the parent of a compound that is named as a salt.

What was measured:
Conditions in all cases: 24 h
[1] = test system: NHEK immortalized keratinocytes; experiment: IC50 cell viability (CellTiter-Glo)
[2] = test system: NHEK immortalized keratinocytes
[3] = test system: NKTC primary neonatal keratinocytes
[4] = test system: NKTC primary neonatal keratinocytes; experiment: IC50 cell viability (CellTiter-Glo)

| Structure (SMILES) | IC50 cell viability [1] [µM] | IC50 cell viability (WST-8) [2] [µM] | IC50 cell viability (WST-8) [3] [µM] | IC50 cell viability [4] [µM] |
| --- | --- | --- | --- | --- |
| C[C@H](O)CCO [1,3-Butanediol] | 13.5 | 5.52 | – | – |
| N#CC(Cl)(Cl)Cl [Trichloroacetonitrile] | 0.8 | 1.2 | 6.07 | 5.34 |
| C=CC(=O)OCCCCCCCC(C)C [Isodecyl acrylate] | 3.55 | 1.54 | – | – |
| CCCCCCCCCCCCCCCCOCCOCCOCCOCCOCCOCCOCCOCCOCCOCCOCCOCCOCCOCCOCCOCCOCCOCCOCCOCCO [Polyethylene glycol (20) hexadecyl ether] | – | 13.3 | – | – |
| O=C1C=CC(=C(c2ccc(O)cc2)c2ccccc2S(=O)(=O)O)C=C1 [Phenol Red sodium salt] | 79.9 | – | – | – |
| Oc1c(Cl)c(Cl)c(Cl)c(Cl)c1Cl [Pentachlorophenol] | 0.51 | 0.12 | 1.18 | 4.23 |
| O=c1[nH]sc2ccccc12 [1,2-Benzisothiazolin-3-one] | 1.26 | 1.68 | 21.4 | 16 |
| Oc1cc(Cl)ccc1Oc1ccc(Cl)cc1Cl [Triclosan] | 55.1 | > 88 | 87.4 | > 88 |
| CC(C)(C)C(=O)C(Oc1ccc(Cl)cc1)n1ccnc1 (centres undefined) [Climbazole] | 0.42 | – | – | – |
| Oc1ccc(O)cc1 [Hydroquinone] | 39.1 | – | – | – |
| CCCCCCCCCCCC(=O)O [Dodecanoic acid] | 58.1 | 58.1 | > 88 | > 88 |
| CCCCCCCCCCCCN1CCCC1=O [1-Dodecyl-2-pyrrolidinone] | 18.4 | 15.8 | – | 29.1 |
| CN=C1C=CC(=C(c2ccc(N(C)C)cc2)c2ccc(N(C)C)cc2)C=C1 [Methyl Violet] | 0.64 | 0.51 | – | – |
| O=C1OC2(c3cc(Br)c(O)c(Br)c3Oc3c2cc(Br)c(O)c3Br)c2c(Cl)c(Cl)c(Cl)c(Cl)c21 [D&C Red 27] | 44.9 | – | 22.3 | 28.1 |
| O=[N+]([O-])C(Br)(CO)CO [Bronopol] | 24.1 | 24.9 | 53.8 | 73.2 |
| O=CCc1ccccc1 [Phenylacetaldehyde] | > 88 | > 88 | – | – |
| Oc1c(Cl)cc(Cl)c(Cl)c1Cc1c(O)c(Cl)cc(Cl)c1Cl [Hexachlorophene] | 0.39 | 0.37 | 2.28 | 18.8 |
| CC(C)(C)c1cc(O)ccc1O [tert-Butylhydroquinone] | 77.7 | > 88 | – | 58.1 |
| C=C/C=C\CC1=C(C)[C@@H](OC(=O)[C@@H]2[C@@H](/C=C(\C)C(=O)OC)C2(C)C)CC1=O.C=C/C=C\CC1=C(C)[C@@H](OC(=O)[C@@H]2[C@@H](C=C(C)C)C2(C)C)CC1=O [Pyrethrins] | – | 34.8 | – | – |
| CC(C)(c1ccc(OCC2CO2)cc1)c1ccc(OCC2CO2)cc1 (centres undefined) [Bisphenol A diglycidyl ether] | 39.1 | 43.7 | 65.2 | 71.2 |
| Cc1c2ccccc2c(C)c2c1ccc1ccccc12 [7,12-Dimethylbenz(a)anthracene] | 46.2 | 46.2 | 46.2 | 46.2 |
| CCCCCCCCCCCCOC(=O)c1cc(O)c(O)c(O)c1 [Dodecyl gallate] | 21 | 23.5 | – | – |
| CCN(CC)c1ccc2c(-c3ccccc3C(=O)O)c3ccc(=[N+](CC)CC)cc-3oc2c1 [Rhodamine B] | 42.8 | – | – | – |
| O=c1c(-c2ccccc2)c1-c1ccccc1 [Diphenylcyclopropenone] | 30.8 | 36.6 | 5.47 | 5.69 |
| C=C1CC[C@H](O)C/C1=C/C=C1\CCC[C@]2(C)[C@@H]([C@H](C)CCCC(C)C)CC[C@@H]12 [Vitamin D3] | 13.7 | 12.7 | – | – |

| Structure (SMILES) | IC50 cell viability [1] [µM] | IC50 cell viability (WST-8) [2] [µM] | IC50 cell viability (WST-8) [3] [µM] | IC50 cell viability [4] [µM] |
| --- | --- | --- | --- | --- |
| CN(C)c1ccc(C(=C2C=CC(=[N+](C)C)C=C2)c2ccc(N(C)C)cc2)cc1 [Methylrosaniline chloride] | 1.99 | 1.51 | 42.8 | 41.5 |
| O=CCCCC=O [Glutaraldehyde] | 20.2 | 24.4 | > 88 | > 88 |
| CC(=O)[O][Hg][c]1ccccc1 [Phenylmercuric acetate] | 0.06 | 0.01 | 0.38 | 0.37 |
| C=CC(=O)OCC(CC)(COC(=O)C=C)COC(=O)C=C [Trimethylolpropane triacrylate] | 24.9 | 24.9 | 24.9 | 20.6 |
| O=C(Nc1ccc(Cl)cc1)Nc1ccc(Cl)c(Cl)c1 [Triclocarban] | 2.7 | 2.31 | – | 6.78 |
| CCCCN(CCC(=O)OCC)C(C)=O [Ethyl 3-(N-butylacetamido)propionate] | 21 | – | – | – |
| Cc1ccc(/C=C2/C(=O)C3(C)CCC2C3(C)C)cc1 (centres undefined) [Enzacamene] | 71.3 | > 88 | > 88 | 71.6 |
| CCCCNC(=O)OCC#CI [3-Iodo-2-propynyl-N-butylcarbamate] | 76.7 | > 88 | – | – |
| CC1=CC(=C(c2ccc(N)cc2)c2ccc(N)cc2)C=CC1=N [C.I. Basic Violet 14] | 1.16 | – | – | – |
| CCCCCCCCCCCCc1ccc(S(=O)(=O)O)cc1 [Dodecylbenzenesulfonic acid] | 25.8 | 29.5 | 23 | 29.9 |
| CC(=O)OCC(C)OC(C)=O (centres undefined) [Propylene glycol diacetate] | 35.7 | 27.7 | – | – |
| CC(=O)N1CCN(c2ccc(OCC3COC(Cn4ccnc4)(c4ccc(Cl)cc4Cl)O3)cc2)CC1 (centres undefined) [Ketoconazole] | 26.4 | 14 | – | – |
| CNc1ccc(O)cc1 [p-Methylaminophenol sulfate] | 6.78 | 8.53 | 13.9 | 24.3 |
| CCN(CC)c1ccc(C(=C2C=CC(=[N+](CC)CC)C=C2)c2ccc(S(=O)(=O)O)cc2S(=O)(=O)[O-])cc1 [Sulfan blue] | 41.3 | – | – | – |
| CCCCCCCCCCCC[N+](C)(C)Cc1ccccc1 [Benzyldimethyldodecylammonium chloride] | 2.91 | 3.36 | 22.2 | 43.1 |
| Cn1sccc1=O [2-Methyl-4-isothiazolin-3-one hydrochloride] | 39.9 | 32.2 | – | – |
| C=CC(=O)OCCO [2-Hydroxyethyl acrylate] | 35.1 | 17.4 | – | – |
| CC1(C)CNC(=NN=C(/C=C/c2ccc(C(F)(F)F)cc2)/C=C/c2ccc(C(F)(F)F)cc2)NC1 [Hydramethylnon] | 17 | 27 | 51.3 | 38.9 |
| CCCCC(CC)COC(=O)C(C#N)=C(c1ccccc1)c1ccccc1 (centres undefined) [Octocrylene] | 16.6 | 9.8 | – | – |
| COC(C)(C)CCC[C@H](C)C/C=C/C(C)=C/C(=O)OC(C)C [S-Methoprene] | 82.5 | 82.5 | – | – |
| COc1ccc(C(C)=O)cc1 [4'-Methoxyacetophenone] | 55.5 | 53.4 | – | – |
| N#CCCC(Br)(C#N)CBr (centres undefined) [1,2-Dibromo-2,4-dicyanobutane] | 60.4 | > 88 | > 88 | 77.7 |
| O=[N+]([O-])c1ccc(Cl)c([N+](=O)[O-])c1 [1-Chloro-2,4-dinitrobenzene] | 5.43 | 4.76 | 9.18 | 9.18 |
| [K+].[K+].[O]=[Cr](=[O])([O-])[O][Cr](=[O])(=[O])[O-] [Potassium dichromate] | 1.66 | 1.97 | 2.3 | 2.53 |
| O=C(c1ccccc1)c1ccc(O)cc1O [2,4-Dihydroxybenzophenone] | 58.1 | 44.4 | – | – |
